Results reported in the NIST ThermoML archive (doi:10.1016/j.fluid.2008.03.004).

Test: xn = mol fraction of the nth substance listed
Details: 101 kPa, Liquid; for speed of sound: Sing-around technique in a fixed-path interferometer

CCOC(C)(C)C [2-ethoxy-2-methylpropane] + Cc1ccccc1C
Details | mass density [kg/m3] | speed of sound [m/s]
305.65 K, x1 = 0.055 | 860.769 | –
305.65 K, x1 = 0.098 | 854.986 | –
305.65 K, x1 = 0.201 | 840.317 | –
305.65 K, x1 = 0.307 | 825.151 | –
305.65 K, x1 = 0.4 | 811.766 | –
305.65 K, x1 = 0.502 | 797.158 | –
305.65 K, x1 = 0.601 | 783.634 | –
305.65 K, x1 = 0.661 | 775.073 | –
305.65 K, x1 = 0.803 | 755.208 | –
305.65 K, x1 = 0.895 | 742.232 | –
305.65 K, x1 = 0.947 | 735.025 | –
305.65 K, x1 = 1 | 727.038 | –
308.15 K, x1 = 0.055 | 858.631 | 1287.6
308.15 K, x1 = 0.098 | 852.826 | 1274.8
308.15 K, x1 = 0.201 | 838.108 | 1241.4
308.15 K, x1 = 0.307 | 822.889 | 1205.4
308.15 K, x1 = 0.4 | 809.458 | 1176.8
308.15 K, x1 = 0.502 | 794.798 | 1143
308.15 K, x1 = 0.601 | 781.229 | 1112.4
308.15 K, x1 = 0.661 | 772.636 | 1093.1
308.15 K, x1 = 0.803 | 752.697 | 1049.4
308.15 K, x1 = 0.895 | 739.673 | 1022.1
308.15 K, x1 = 0.947 | 732.438 | 1007
308.15 K, x1 = 1 | 724.443 | 986.39
310.65 K, x1 = 0.055 | 856.488 | 1277.2
310.65 K, x1 = 0.098 | 850.664 | 1264.8
310.65 K, x1 = 0.201 | 835.894 | 1231.1
310.65 K, x1 = 0.307 | 820.623 | 1195
310.65 K, x1 = 0.4 | 807.147 | 1166.3
310.65 K, x1 = 0.502 | 792.433 | 1132.4
310.65 K, x1 = 0.601 | 778.816 | 1101.8
310.65 K, x1 = 0.661 | 770.192 | 1082.4
310.65 K, x1 = 0.803 | 750.176 | 1038.6
310.65 K, x1 = 0.895 | 737.1 | 1011.2
310.65 K, x1 = 0.947 | 729.838 | 996
310.65 K, x1 = 1 | 721.826 | 975.42
313.15 K, x1 = 0.055 | 854.337 | 1267.1
313.15 K, x1 = 0.098 | 848.496 | 1254.7
313.15 K, x1 = 0.201 | 833.676 | 1220.9
313.15 K, x1 = 0.307 | 818.351 | 1184.6
313.15 K, x1 = 0.4 | 804.83 | 1155.9
313.15 K, x1 = 0.502 | 790.061 | 1121.9
313.15 K, x1 = 0.601 | 776.395 | 1091.1
313.15 K, x1 = 0.661 | 767.738 | 1071.7
313.15 K, x1 = 0.803 | 747.65 | 1027.7
313.15 K, x1 = 0.895 | 734.522 | 1000.3
313.15 K, x1 = 0.947 | 727.227 | 985.03
313.15 K, x1 = 1 | 719.179 | 964.53
315.65 K, x1 = 0.055 | 852.189 | 1256.9
315.65 K, x1 = 0.098 | 846.323 | 1244.6
315.65 K, x1 = 0.201 | 831.454 | 1210.7
315.65 K, x1 = 0.307 | 816.076 | 1174.3
315.65 K, x1 = 0.4 | 802.508 | 1145.5
315.65 K, x1 = 0.502 | 787.684 | 1111.4
315.65 K, x1 = 0.601 | 773.969 | 1080.5
315.65 K, x1 = 0.661 | 765.278 | 1061
315.65 K, x1 = 0.803 | 745.112 | 1017
315.65 K, x1 = 0.895 | 731.932 | 989.44
315.65 K, x1 = 0.947 | 724.606 | 974.07
315.65 K, x1 = 1 | 716.527 | 953.54
318.15 K, x1 = 0.055 | 850.034 | 1246.8
318.15 K, x1 = 0.098 | 844.148 | 1234.5
318.15 K, x1 = 0.201 | 829.229 | 1200.6
318.15 K, x1 = 0.307 | 813.795 | 1164.1
318.15 K, x1 = 0.4 | 800.179 | 1135.1
318.15 K, x1 = 0.502 | 785.298 | 1100.9
318.15 K, x1 = 0.601 | 771.536 | 1070
318.15 K, x1 = 0.661 | 762.809 | 1050.4
318.15 K, x1 = 0.803 | 742.564 | 1006.2
318.15 K, x1 = 0.895 | 729.329 | 978.59
318.15 K, x1 = 0.947 | 721.974 | 963.16
318.15 K, x1 = 1 | 713.96 | 942.67
320.65 K, x1 = 0.055 | 847.874 | 1236.7
320.65 K, x1 = 0.098 | 841.964 | 1224.5
320.65 K, x1 = 0.201 | 826.995 | 1190.5
320.65 K, x1 = 0.307 | 811.507 | 1153.8
320.65 K, x1 = 0.4 | 797.84 | 1124.8
320.65 K, x1 = 0.502 | 782.908 | 1090.4
320.65 K, x1 = 0.601 | 769.096 | 1059.4
320.65 K, x1 = 0.661 | 760.332 | 1039.8
320.65 K, x1 = 0.803 | 740.007 | 995.53
320.65 K, x1 = 0.895 | 726.717 | 967.79
320.65 K, x1 = 0.947 | 719.329 | 952.29
320.65 K, x1 = 1 | 711.25 | 931.73
323.15 K, x1 = 0.055 | 845.711 | 1226.7
323.15 K, x1 = 0.098 | 839.779 | 1214.5
323.15 K, x1 = 0.201 | 824.757 | 1180.4
323.15 K, x1 = 0.307 | 809.216 | 1143.6
323.15 K, x1 = 0.4 | 795.504 | 1114.5
323.15 K, x1 = 0.502 | 780.509 | 1080
323.15 K, x1 = 0.601 | 766.647 | 1049
323.15 K, x1 = 0.661 | 757.845 | 1029.2
323.15 K, x1 = 0.803 | 737.438 | 984.84
323.15 K, x1 = 0.895 | 724.092 | 957.05
323.15 K, x1 = 0.947 | 716.673 | 941.53
323.15 K, x1 = 1 | 708.642 | 920.73
